Results on 15 compounds are retold here after paper PMC5532645, “Design, Synthesis, and Antifouling Activity of Glucosamine-Based Isocyanides” (Marine Drugs, 2017).

SMILES strings stand for the structures. ≈ marks a conversion by molar mass, not a printed value. Where two headings read alike, the source gives them in different places.

Data set [1] can be described thus: Antifouling assay: settlement and mortality of barnacle cyprids after 48 h. It counts as in vivo. Conditions: cypris larvae, 48 h incubation, read-out: LC50 (toxicity). How it is done:
(§1) Adult barnacles (Amphibalanus amphitrite) procured from oyster farms at Lake Hamana and a pier at Shimizu bay, Shizuoka, were kept in an aquarium at 20 °C and fed on Artemia salina nauplii. Broods were released as I–II stage nauplii upon immersion in seawater after drying overnight. The nauplii thus obtained were cultured in filtered natural seawater (salinity 28) containing penicillin G (20 μg/mL) and streptomycin sulfate (30 μg/mL) and were fed on the diatom Chaetoceros gracilis at concentrations of 40 × 10^4 cells/mL. […] The cyprids were collected and stored at 4 °C until use (0 days old).
(§2) The test compounds were dissolved in ethanol and aliquots of the solution were transferred to wells of a 24-well polystyrene culture plate and air-dried. Four wells were used for each concentration. To each well, filtered seawater (2.0 mL, salinity 28) and six 2-day-old cyprids were added. The plates were kept in the dark at 25 °C for 48 h. […] Three or four trials were done for each concentration. Probit analysis was used to calculate the EC50 values.

Data set [2] relates to cypris larvae of the barnacle Amphibalanus amphitrite. The description is as above. It counts as in vivo. The following applies: for EC50: Amphibalanus amphitrite, 48 h, read-out: EC50 (antifouling activity), cypris larvae, 48 h incubation, probit analysis; for toxicity / mortality of cypris larvae: at a concentration of 10 μg/mL. How it is done:
as §1, §2

For data set [3] the test system is unchanged. The following applies: cited from earlier work.
Setting [4] is: Amphibalanus amphitrite (barnacle, in vivo, other: immersion in seawater holding the compound).
The mark [5] stands for this setting: synthetic sample of 1 and its synthetic intermediates.

By LC50 is commonly meant the concentration that kills 50% of the test population. By EC50 is commonly meant the concentration needed to bring the measured effect to its halfway point. In the case of `[C-]#[N+][C@H]1[C@H](Oc2ccccc2)O[C@H](COC(C)=O)[C@@H](OC(C)=O)[C@@H]1OC(C)=O` [Compound 6c], the LC50 at 48 h in data set [1] (setting [4]) was over 10 µg/mL. Besides, the EC50 in data set [2] stood at 0.71 µg/mL (≈ 1.81 µM).

For the compound `[C-]#[N+][C@@]1(C)CC[C@H](C(C)C)[C@H]2C=C(C)CC[C@@H]21` [Compound 1, 10-isocyano-4-cadinene], the results for the “EC50 (antifouling activity)” value in data set [3] (natural compound obtained from nudibranchs) and in data set [3] (setting [5]) were 0.14 µg/mL (≈ 0.605 µM) and 0.06 µg/mL (≈ 0.259 µM), respectively. Besides, in data set [3] (natural compound), the “LC50 (50% lethal concentration)” value is over 10 µg/mL. In data set [3] (setting [5]), the median lethal concentration (LC50) was over 10 µg/mL.

On to `O=S(=O)([O-])[O-].[Cu+2]` [CuSO4], for which the “EC50 (antifouling activity)” value in data set [3] (CuSO4 used as a fouling inhibitor) was 0.27 µg/mL.

With `CC1=C[C@H]2[C@H](CC1)[C@@H](O)CC[C@@H]2C(C)C` [Compound 2], in data set [3] (setting [5]), the “EC50 (antifouling activity)” value is 0.31 µg/mL (≈ 1.49 µM) and the LC50 was over 10 µg/mL.

Take `[C-]#[N+][C@H]1[C@H](OC(C)C)O[C@H](COC(=O)c2ccccc2)[C@@H](OC(=O)c2ccccc2)[C@@H]1OC(=O)c1ccccc1` [Compound 6j]: in data set [1] (setting [4]), the 50% lethal concentration (LC50) at 48 h was over 10 µg/mL. The concentration giving a half-maximal response (EC50) in data set [2] worked out at 0.81 µg/mL (≈ 1.49 µM).

As for `[C-]#[N+][C@H]1[C@H](OC(C)C)O[C@H](COC(C)=O)[C@@H](OC(C)=O)[C@@H]1OC(C)=O` [Compound 6f], the LC50 at 48 h in data set [1] (setting [4]) was over 10 µg/mL. In data set [2], the EC50 was 0.23 µg/mL (≈ 0.644 µM).

Turning to `[C-]#[N+][C@H]1[C@H](OCC=C)O[C@H](COC(C)=O)[C@@H](OC(C)=O)[C@@H]1OC(C)=O` [Compound 6e], the LC50 at 48 h in data set [1] (setting [4]) is over 10 µg/mL. Besides, in data set [2], the concentration for a half-maximal effect (EC50) was 0.37 µg/mL (≈ 1.04 µM).

Consider `[C-]#[N+][C@H]1[C@H](OC(=O)CCCCCCCCCCCCCCC)O[C@H](COC(=O)CCCCCCCCCCCCCCC)[C@@H](OC(=O)CCCCCCCCCCCCCCC)[C@@H]1OC(=O)CCCCCCCCCCCCCCC` [Compound 6b], for which the 50% lethal concentration (LC50) at 48 h in data set [1] (setting [4]) was over 10 µg/mL. Besides, in data set [2], the 50% effective concentration (EC50) is over 5 µg/mL and the “toxicity / mortality of cypris larvae” value is reported as “lethal larva was not observed”.

With `[C-]#[N+][C@H]1[C@H](OC(C)C)O[C@H](CO[Si](C)(C)C(C)(C)C)[C@@H](O[Si](C)(C)C(C)(C)C)[C@@H]1O[Si](C)(C)C(C)(C)C` [Compound 6k], in data set [1] (Amphibalanus amphitrite (barnacle, in vivo)), the 50% lethal concentration (LC50) at 48 h was over 10 µg/mL. Moreover, the EC50 in data set [2] is 0.25 µg/mL (≈ 0.436 µM).

`[C-]#[N+][C@H]1[C@H](OCC(F)(F)F)O[C@H](COC(C)=O)[C@@H](OC(C)=O)[C@@H]1OC(C)=O` [Compound 6g]: the 50% lethal concentration (LC50) at 48 h in data set [1] (setting [4]) is over 10 µg/mL. The EC50 in data set [2] was found to be 0.36 µg/mL (≈ 0.906 µM).

For `[C-]#[N+][C@H]1[C@H](OC(C)C)O[C@H](COC(=O)CCCCCCC)[C@@H](OC(=O)CCCCCCC)[C@@H]1OC(=O)CCCCCCC` [Compound 6h], the 50% lethal concentration (LC50) at 48 h in data set [1] (setting [4]) is over 10 µg/mL. Also, the EC50 in data set [2] was 0.79 µg/mL (≈ 1.3 µM).

As for `[C-]#[N+][C@H]1[C@H](OC(C)=O)O[C@H](COC(C)=O)[C@@H](OC(C)=O)[C@@H]1OC(C)=O` [Compound 6a], the 50% lethal concentration (LC50) at 48 h in data set [1] (setting [4]) was over 10 µg/mL. Further, in data set [2], the 50% effective concentration (EC50) is over 5 µg/mL and the “toxicity / mortality of cypris larvae” value is “lethal larva was not observed”.

Regarding `[C-]#[N+][C@]1(C)CC[C@@H](/C(C)=C/C=C/C(C)C)CC1` [Compound 4, 3-isocyanotheonellin], in data set [3] (previously reported), the “EC50 (antifouling activity)” value is 0.19 µg/mL (≈ 0.821 µM) and the LC50 is over 10 µg/mL.

On to `[C-]#[N+][C@H]1[C@H](OCc2ccccc2)O[C@H](COC(C)=O)[C@@H](OC(C)=O)[C@@H]1OC(C)=O` [Compound 6d], for which the LC50 at 48 h in data set [1] (setting [4]) was over 10 µg/mL. Besides, in data set [2], the EC50 was determined as 0.7 µg/mL (≈ 1.73 µM).

`[C-]#[N+][C@H]1[C@H](OC(C)C)O[C@H](COC(=O)CCCCCCCCCCCCCCC)[C@@H](OC(=O)CCCCCCCCCCCCCCC)[C@@H]1OC(=O)CCCCCCCCCCCCCCC` [Compound 6i]: the LC50 at 48 h in data set [1] (setting [4]) is over 10 µg/mL. The concentration for a half-maximal effect (EC50) in data set [2] is 0.31 µg/mL (≈ 0.328 µM).
